Experimental data reported in US20230286958A1, “PLASMA KALLIKREIN INHIBITORS” (Merck Sharp & Dohme LLC, priority 2020, published 2023).
pIC50: −log10 of the molar value.

Assays:
human Factor XIa = human Factor XIa (Homo sapiens (Human), UniProt P03951); test: Factor XIa Assay (fluorogenic substrate GPR-AFC); format: biochemical; conditions: Factor XIa (FXIa)
Human plasma kallikrein = Human plasma kallikrein (Homo sapiens (Human), UniProt P03952); test: Kallikrein Assay (fluorogenic substrate Acetyl-K-P-R-AFC); format: biochemical; conditions: Plasma Kallikrein (PKal)
Procedure, shortened: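 Ki is derived from IC50 with the Cheng-Prusoff equation, and IC50 from the inflection point of a four-parameter logistic curve. The rate of AFC release is read with 0.5 nM purified enzyme and […] substrate at room temperature or 37 °C.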

Chain of human Factor XIa (P03951 388-625 limits assumed): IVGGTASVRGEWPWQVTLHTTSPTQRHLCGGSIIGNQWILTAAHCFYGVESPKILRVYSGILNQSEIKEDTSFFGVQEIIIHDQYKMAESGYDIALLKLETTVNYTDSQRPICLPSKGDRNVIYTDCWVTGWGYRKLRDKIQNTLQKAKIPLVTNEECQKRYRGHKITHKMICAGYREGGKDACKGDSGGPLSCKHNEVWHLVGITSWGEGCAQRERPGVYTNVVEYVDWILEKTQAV
Chain of human Factor XIa (P03951 19-387 partner limits assumed): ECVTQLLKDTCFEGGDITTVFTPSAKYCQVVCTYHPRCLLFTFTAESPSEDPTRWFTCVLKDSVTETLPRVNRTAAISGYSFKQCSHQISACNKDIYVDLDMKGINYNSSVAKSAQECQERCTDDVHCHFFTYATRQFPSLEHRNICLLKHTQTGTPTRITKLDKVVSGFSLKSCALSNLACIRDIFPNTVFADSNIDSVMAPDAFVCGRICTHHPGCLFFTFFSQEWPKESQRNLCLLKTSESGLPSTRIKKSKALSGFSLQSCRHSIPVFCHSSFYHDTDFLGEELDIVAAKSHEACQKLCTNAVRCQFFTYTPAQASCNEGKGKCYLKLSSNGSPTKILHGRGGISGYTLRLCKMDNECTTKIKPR
Chain of Human plasma kallikrein (P03952 391-638): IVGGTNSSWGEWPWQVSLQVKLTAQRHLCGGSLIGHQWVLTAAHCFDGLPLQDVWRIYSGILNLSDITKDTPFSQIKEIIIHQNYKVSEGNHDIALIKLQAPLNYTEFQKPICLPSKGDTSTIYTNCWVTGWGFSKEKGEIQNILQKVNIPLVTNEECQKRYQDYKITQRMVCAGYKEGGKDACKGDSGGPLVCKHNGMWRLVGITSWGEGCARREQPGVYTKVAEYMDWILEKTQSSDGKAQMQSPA
Chain of Human plasma kallikrein (P03952 20-390 partner): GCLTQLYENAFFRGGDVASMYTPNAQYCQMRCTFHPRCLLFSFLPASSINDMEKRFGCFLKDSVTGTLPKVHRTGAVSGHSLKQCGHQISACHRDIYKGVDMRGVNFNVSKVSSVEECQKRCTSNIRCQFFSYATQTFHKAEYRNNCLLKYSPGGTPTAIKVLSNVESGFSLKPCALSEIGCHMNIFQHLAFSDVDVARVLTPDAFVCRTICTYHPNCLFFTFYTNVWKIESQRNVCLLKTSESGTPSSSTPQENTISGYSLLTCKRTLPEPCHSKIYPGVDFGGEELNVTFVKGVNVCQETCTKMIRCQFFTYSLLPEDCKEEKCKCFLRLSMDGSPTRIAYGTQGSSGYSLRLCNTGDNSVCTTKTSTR

| SMILES | pIC50 (human Factor XIa) | pIC50 (Human plasma kallikrein) |
| --- | --- | --- |
| CC(c1ccc(N2C[C@H]3C[C@H]3C2=O)nc1)n1cc(NC(=O)c2cncc(-c3c(C#N)ccc(Cl)c3F)n2)cn1 (single isomer, unassigned) [Example 90, 6-(3-Chloro-6-cyano-2-fluorophenyl)-N-(1-((R or S)-1-(6-((1R,SS)-2-oxo-3-azabicyclo[3.1.0]hexan-3-yl)pyridin-3-yl)ethyl)-1H-pyrazol-4-yl)pyrazine-2-carboxamide] | < 5.00 | 7.86 |
| CC(c1cnc(N2C[C@H]3C[C@H]3C2=O)c2c1OC(F)(F)O2)n1cc(NC(=O)c2cncc(-c3c(C(F)F)ccc(Cl)c3F)n2)cn1 (single isomer, unassigned) [Example 248, 6-(3-Chloro-6-(difluoromethyl)-2-fluorophenyl)-N-(1-((R or S)-1-(2,2-difluoro-4-((1R,5S)-2-oxo-3-azabicyclo[3.1.0]hexan-3-yl)-[1,3]dioxolo[4,5-c]pyridin-7-yl)ethyl)-1H-pyrazol-4-yl)pyrazine-2-carboxamide] | < 5.00 | 7.65 |
| Cc1ncc(-c2c(C(F)F)ccc(Cl)c2F)nc1C(=O)Nc1cnn(Cc2ncc(N3C[C@H]4C[C@H]4C3=O)c(C)c2F)c1 [Example 215, 6-(3-Chloro-6-(difluoromethyl)-2-fluorophenyl)-N-(1-((3-fluoro-4-methyl-5-((1R,5S)-2-oxo-3-azabicyclo[3.1.0]hexan-3-yl)pyridin-2-yl)methyl)-1H-pyrazol-4-yl)-3-methylpyrazine-2-carboxamide] | < 5.00 | 8.11 |
| Cc1nc(C2(n3cc(NC(=O)c4nc(-c5c(C(F)F)ccc(Cl)c5F)cnc4CO)cn3)CC2)cnc1N1C[C@H]2C[C@H]2C1=O [Example 223, 6-(3-Chloro-6-(difluoromethyl)-2-fluorophenyl)-3-(hydroxymethyl)-N-(1-(1-(6-methyl-5-((1R,5S)-2-oxo-3-azabicyclo[3.1.0]hexan-3-yl)pyrazin-2-yl)cyclopropyl)-1H-pyrazol-4-yl)pyrazine-2-carboxamide] | 5.73 | 9.00 |
| Cc1ccc(Cl)c(F)c1-c1cnc(C)c(C(=O)Nc2cnn(Cc3nnc(N4C[C@H]5C[C@H]5C4=O)c(C)c3C)c2)n1 [Example 112, 6-(3 -Chloro-2-fluoro-6-methylphenyl)-N-(1-((4,5-dimethyl-6-((1R,5S)-2-oxo-3-azabicyclo[3.1.0]hexan-3-yl)pyridazin-3-yl)methyl)-1H-pyrazol-4-yl)-3-methylpyrazine-2-carboxamide] | 5.92 | 8.32 |
| Cc1nc(C(C)n2cc(NC(=O)c3nc(-c4c(C(F)F)ccc(Cl)c4F)cnc3CO)cn2)cnc1N1C[C@H]2C[C@H]2C1=O (single isomer, unassigned) [Example 198, 6-(3-Chloro-6-(difluoromethyl)-2-fluorophenyl)-3-(hydroxymethyl-N-(1-((R or S)-I-(6-methyl-5-((1R,5S)-2-oxo-3-azabicyclo[3.1.0]hexan-3-yl)pyrazin-2-yl)ethyl)-1H-pyrazol-4-yl)pyrazine-2-carboxamide] | 6.96 | 10.00 |
| O=C(Nc1cnn(Cc2cnc(N3C[C@H]4C[C@H]4C3=O)c(F)c2)c1)c1cncc(-c2c(C(F)F)ccc(Cl)c2F)n1 [Example 50, 6-(3-Chloro-6-(difluoromethyl)-2-fluorophenyl)-N-(1-((5-fluoro-6-((1R,5S)-2-oxo-3-azabicyclo[3.1.0]hexan-3-yl)pyridin-3-yl)methyl)-1H-pyrazol-4-yl)pyrazine-2-carboxamide] | 5.67 | 8.26 |
| Cc1cc(N2C[C@H]3C[C@H]3C2=O)ncc1C(C)n1cc(NC(=O)c2cncc(-c3c(C(F)F)ccc(Cl)c3F)n2)cn1 (single isomer, unassigned) [Example 68, 6-(3-Chloro-6-(difluoromethyl)-2-fluorophenyl)-N-(1-((S or R)-1-(4-methyl-6-((1R,5S)-2-oxo-3-azabicyclo[3.1.0]hexan-3-yl)pyridin-3-yl)ethyl)-1H-pyrazol-4-yl)pyrazine-2-carboxamide] | 5.28 | 8.96 |
| Cc1nc(C(C)n2cc(NC(=O)c3nc(-c4c(C(F)F)ccc(Cl)c4F)cnc3COC(C)(C)C)cn2)cnc1N1C[C@H]2C[C@H]2C1=O (mixture of isomers) [Example 196, 3-(tert-Butoxymethyl)-6-(3-chloro-6-(difluoromethyl)-2-fluorophenyl)-N-(1-((S and R)-1-(6-methyl-5-((1R,5S)-2-oxo-3-azabicyclo[3.1.0]hexan-3-yl)pyrazin-2-yl)ethyl)-1H-pyrazol-4-yl)pyrazine-2-carboxamide] | 5.68 | 9.05 |
| CC(c1cnc(N2C[C@H]3C[C@H]3C2=O)c(C(F)F)c1)n1cc(NC(=O)c2cncc(-c3c(C(F)F)ccc(Cl)c3F)n2)cn1 (single isomer, unassigned) [Example 77, 6-(3-Chloro-6-(difluoromethyl)-2-fluorophenyl)-N-(1-((S or R)-1-(5-(difluoromethyl)-6-((1R,5S)-2-oxo-3-azabicyclo[3.1.0]hexan-3-yl)pyridin-3-yl)ethyl)-1H-pyrazol-4-yl)pyrazine-2-carboxamide] | 5.10 | 7.90 |
| C[C@@H](c1cnc(N2C[C@H]3C[C@H]3C2=O)nc1)n1cc(NC(=O)c2nc(-c3c(C(F)F)ccc(Cl)c3F)cnc2C(O)C(F)(F)F)cn1 (single isomer, unassigned) [Example 176, 6-(3-Chloro-6-(difluoromethyl)-2-fluorophenyl)-N-(1-((S)-1-(2-((1R,5S)-2-oxo-3-azabicyclo[3.1.0]hexan-3-yl)pyrimidin-5-yl)ethyl)-1H-pyrazol-4-yl)-3-((S or R)-2,2,2-trifluoro-1-hydroxyethyl)pyrazine-2-carboxamide] | 5.34 | 8.28 |
| Cc1nc(N2C[C@@H]3C[C@@H]3C2=O)ncc1[C@@H](CO)n1cc(NC(=O)c2cncc(-c3c(C(F)F)ccc(Cl)c3F)n2)cn1 [Example 157, 6-(3-Chloro-6-(difluoromethyl)-2-fluorophenyl)-N-(1-((S)-2-hydroxy-1-(4-methyl-2-((1S,5R)-2-oxo-3-azabicyclo[3.1.0]hexan-3-yl)pyrimidin-5-yl)ethyl)-1H-pyrazol-4-yl)pyrazine-2-carboxamide] | < 5.00 | 5.99 |
| Cc1cc(C(C)n2cc(NC(=O)c3nc(-c4c(C(F)F)ccc(Cl)c4F)cnc3C(C)O)cn2)cnc1N1C[C@H]2C[C@H]2C1=O (single isomer, unassigned) [Example 211, 6-(3-Chloro-6-(difluoromethyl)-2-fluorophenyl)-3-((R or S)-1-hydroxyethyl)-N-(1-((S or R)-1-(5-methyl-6-((1R,5S)-2-oxo-3-azabicyclo[3.1.0]hexan-3-yl)pyridin-3-yl)ethyl)-1H-pyrazol-4-yl)pyrazine-2-carboxamide] | 7.30 | 9.22 |
| Cc1c(C(C)n2cc(NC(=O)c3cncc(-c4c(C(F)F)ccc(Cl)c4F)n3)cn2)nnc(N2C[C@H]3C[C@H]3C2=O)c1C (single isomer, unassigned) [Example 111, 6-(3-Chloro-6-(difluoromethyl)-2-fluorophenyl)-N-(1-((R or S)-1-(4,5-dimethyl-6-((1R,5S)-2-oxo-3-azabicyclo[3.1.0]hexan-3-yl)pyridazin-3-yl)ethyl)-1H-pyrazol-4-yl)pyrazine-2-carboxamide] | 6.97 | 9.40 |
